14 compounds from patent publication US8778973B2, “Alkene oxindole derivatives” (Hoffmann-La Roche Inc., priority 2009, dated 2014) can be followed below.

The test system of the experiment is Recombinant human AMPK proteins (α1β1γ1, α2β1γ1, α1(1-335), α1(1-394) or α2(1-394)). Kind of experiment: Scintillation Proximity Assay (SPA) of AMPK activation. The settings on record: activator concentration for 50% of maximal enzyme activity; 50 nM recombinant AMPK, 2 μM ATP, 30° C., 2 hr. The experiment is classed as biochemical. A digest of the protocol: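 Recombinant human AMPK (α1β1γ1, α2β1γ1 or α-subunit truncations), fully pre-phosphorylated, was used at 50 nM with 2 μM biotin-SAMS, 2 μM ATP plus [γ-^33P]ATP in Tris-HCl pH 7.5, MgCl2, DTT, 2 hr at 30° C. Product was captured on streptavidin SPA beads. EC50 was the activator concentration giving 50% of maximal activity.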
On the technique in general: SPA uses beads or plates that emit light when radiolabelled molecules are held near them.

Regarding `COC(=O)c1cccc(CN2C(=O)/C(=C(/CC(C)(C)C)c3ccccc3)c3ccccc32)c1` [Example 78, 3-{3-[3,3-Dimethyl-1-phenyl-but-(Z)-ylidene]-2-oxo-2,3-dihydro-indol-1-ylmethyl}-benzoic acid methyl ester], the EC50 came to 1.6 µM.
`COC(=O)c1cccc(CN2C(=O)/C(=C(/Cc3ccc(Cl)cc3)c3ccccc3)c3ccccc32)c1` [Example 79, 3-{3-[2-(4-Chloro-phenyl)-1-phenyl-eth-(Z)-ylidene]-2-oxo-2,3-dihydro-indol-1-ylmethyl}-benzoic acid methyl ester]: the EC50 was 1.69 µM.
Turning to `COC(=O)c1cccc(CN2C(=O)/C(=C(\CC(C)(C)C)c3ccccc3)c3ccccc32)c1` [Example 80, 3-{3-[3,3-Dimethyl-1-phenyl-but-(E)-ylidene]-2-oxo-2,3-dihydro-indol-1-ylmethyl}-benzoic acid methyl ester], the EC50 stood at 5.8 µM.
On to `CC(C)CC/C(=C1/C(=O)N(Cc2cccc(C(=O)O)c2)c2ccccc21)c1ccccc1` [Example 81, 3-[3-(4-Methyl-1-phenyl-pent-(Z)-ylidene)-2-oxo-2,3-dihydro-indol-1-ylmethyl]-benzoic acid], for which the EC50 amounted to 4.74 µM.
In the case of `CC(C)/C(Cc1ccc(Cl)cc1)=C1\C(=O)N(Cc2cccc(C(=O)O)c2)c2ccccc21` [Example 82, 3-{3-[1-(4-Chloro-benzyl)-2-methyl-prop-(Z)-ylidene]-2-oxo-2,3-dihydro-indol-1-ylmethyl}-benzoic acid], the 50% effective concentration (EC50) is 1.6 µM.
Turning to `COC(=O)c1cccc(CN2C(=O)/C(=C(/c3ccccc3)C(C)C)c3ccccc32)c1` [Example 85, 3-{3-[2-Methyl-1-phenyl-prop-(E)-ylidene]-2-oxo-2,3-dihydro-indol-1-ylmethyl}-benzoic acid methyl ester], the concentration for a half-maximal effect (EC50) was 4.9 µM.
For `COC(=O)c1cccc(CN2C(=O)/C(=C(/c3ccc(C(C)=O)cc3)C(C)C)c3ccccc32)c1` [Example 86, 3-{3-[1-(4-Acetyl-phenyl)-2-methyl-prop-(E)-ylidene]-2-oxo-2,3-dihydro-indol-1-ylmethyl}-benzoic acid methyl ester], the EC50 was found to be 7.88 µM.
For the compound `COC(=O)c1cccc(CN2C(=O)/C(=C(/c3ccc(Cl)cc3)C3CCCCC3)c3ccccc32)c1` [Example 87, 3-{3-[1-(4-Chloro-phenyl)-1-cyclohexyl-meth-(E)-ylidene]-2-oxo-2,3-dihydro-indol-1-ylmethyl}-benzoic acid methyl ester], the EC50 is 10.7 µM.
The result for `COC(=O)c1cccc(CN2C(=O)/C(=C(/c3ccc(C(F)(F)F)cc3)C(C)C)c3ccccc32)c1` [Example 88, 3-{3-[2-Methyl-1-(4-trifluoromethyl-phenyl)-prop-(E)-ylidene]-2-oxo-2,3-dihydro-indol-1-ylmethyl}-benzoic acid methyl ester] reads 2.59 µM.
Then `O=C(O)c1cccc(CN2C(=O)/C(=C(/c3ccc(Cl)cc3)C3CCCCC3)c3ccccc32)c1` [Example 104, 3-{3-[1-(4-Chloro-phenyl)-1-cyclohexyl-meth-(E)-ylidene]-2-oxo-2,3-dihydro-indol-1-ylmethyl}-benzoic acid], with 4.63 µM; and `CC(C)/C(=C1\C(=O)N(Cc2cccc(C(=O)O)c2)c2ccccc21)c1ccc(C(F)(F)F)cc1` [Example 105, 3-{3-[2-Methyl-1-(4-trifluoromethyl-phenyl)-prop-(E)-ylidene]-2-oxo-2,3-dihydro-indol-1-ylmethyl}-benzoic acid], with 2.95 µM; and `CC(C)/C(=C1\C(=O)N(Cc2cccc(C(=O)O)c2)c2ccccc21)c1ccsc1` [Example 106, 3-{3-[2-Methyl-1-thiophen-3-yl-prop-(E)-ylidene]-2-oxo-2,3-dihydro-indol-1-ylmethyl}-benzoic acid], with 1.61 µM.
The result for `CC(C)/C(=C1\C(=O)N(Cc2cccc(C(=O)O)c2)c2ccc(Cl)cc21)c1ccc(C(F)(F)F)cc1` [Example 107, 3-{5-Chloro-3-[2-methyl-1-(4-trifluoromethyl-phenyl)-prop-(E)-ylidene]-2-oxo-2,3-dihydro-indol-1-ylmethyl}-benzoic acid] reads 0.66 µM; that for `CC(=O)c1ccc(/C(=C2/C(=O)N(Cc3cccc(C(=O)O)c3)c3ccccc32)C(C)C)cc1` [Example 108, 3-{3-[1-(4-Acetyl-phenyl)-2-methyl-prop-(E)-ylidene]-2-oxo-2,3-dihydro-indol-1-ylmethyl}-benzoic acid], 3.25 µM.

A word on the EC50: it is the concentration needed to bring the measured effect to its halfway point.
